From patent US7875647B2, “Heteroaryl-pyrazole derivatives as cannabinoid CB1 receptor antagonists” (Green Cross Corporation, priority 2006, dated 2011)

What follows are compounds tested against T1, Cannabinoid-1 receptor (CB1R) (Rattus norvegicus, UniProt P20272) (assay: Cannabinoid-1 receptor (CB1R) binding affinity assay ([3H]CP-55940, rat CB-1 receptor binding protocol)). Conditions: IC50(nM), brain tissue of SD rats, [3H]CP-55940, 30° C. 60 min.
T1 construct: The tissue obtained from the brain of SD rats was homogenized; from tissue; host or cells: brain of SD rats (membrane pellet of the homogenate)
T1 sequence (P20272 whole entry): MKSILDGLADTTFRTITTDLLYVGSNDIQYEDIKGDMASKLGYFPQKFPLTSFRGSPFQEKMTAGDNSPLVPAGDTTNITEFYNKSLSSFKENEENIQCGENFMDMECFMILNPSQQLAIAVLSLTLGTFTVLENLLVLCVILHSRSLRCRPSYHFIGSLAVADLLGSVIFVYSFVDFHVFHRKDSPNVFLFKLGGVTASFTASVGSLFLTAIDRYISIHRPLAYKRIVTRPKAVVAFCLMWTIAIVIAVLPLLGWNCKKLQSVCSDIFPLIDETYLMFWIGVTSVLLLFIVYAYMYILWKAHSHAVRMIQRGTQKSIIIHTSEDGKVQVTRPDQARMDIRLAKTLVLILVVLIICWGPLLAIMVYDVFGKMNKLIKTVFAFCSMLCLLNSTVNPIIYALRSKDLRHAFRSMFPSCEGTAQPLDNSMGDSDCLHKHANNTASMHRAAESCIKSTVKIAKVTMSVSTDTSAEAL

Row | Compound | IC50
1 | CC(=O)OCc1c(-c2nnc(C3(c4ccc(Cl)cc4)CC3)o2)nn(-c2ccc(Cl)cc2Cl)c1-c1ccc(Cl)cc1 [Example 197, (5-(4-chlorophenyl)-3-(5-(1-(4-chlorophenyl)cyclopropyl)-1,3,4-oxadiazol-2-yl)-1-(2,4-dichlorophenyl)-1H-pyrazol-4-yl)methyl acetate] | 7.07 nM

Same assay, conditions: brain tissue of SD rats, [3H]CP-55940, 30° C. 60 min; read-out: IC50

Row | Compound | IC50
2 | CC(=O)c1c(-c2nnc(C(C)(C)C)o2)nn(-c2ccc(Cl)cc2Cl)c1-c1ccc(Br)cc1 [Example 214, 1-(5-(4-bromophenyl)-3-(5-tert-butyl-1,3,4-oxadiazol-2-yl)-1-(2,4-dichlorophenyl)-1H-pyrazol-4-yl)ethanone] | 11.9 nM
3 | CCn1nc(-c2nn(-c3ccc(Cl)cc3Cl)c(-c3ccc(Cl)cc3)c2C)nc1C1CC1 [Example 629, 3-(5-(4-chlorophenyl)-1-(2,4-dichlorophenyl)-4-methyl-1H-pyrazol-3-yl)-5-cyclopropyl-1-ethyl-1H-1,2,4-triazole] | 301 nM
4 | Cc1c(-c2nnc(C(C)C3CCCCC3)s2)nn(-c2ccc(Cl)cc2Cl)c1-c1ccc(Cl)cc1 (stereo not drawn) [Example 392, 2-(5-(4-chlorophenyl)-1-(2,4-dichlorophenyl)-4-methyl-1H-pyrazol-3-yl)-5-(1-cyclohexylethyl)-1,3,4-thiadiazole] | 46.7 nM
5 | Cc1c(-c2nnn(CC3CCCCC3)n2)nn(-c2ccc(Cl)cc2Cl)c1-c1ccc(Cl)cc1 [Example 590, 5-(5-(4-Chlorophenyl)-1-(2,4-dichlorophenyl)-4-methyl-1H-pyrazol-3-yl)-2-(cyclohexylmethyl)-2H-tetrazole] | 85.3 nM
6 | Cc1c(-c2ncc(C3CCCC3)s2)nn(-c2ccc(Cl)cc2Cl)c1-c1ccc(Cl)cc1 [Example 648, 2-(5-(4-chlorophenyl)-1-(2,4-dichlorophenyl)-4-methyl-1H-pyrazol-3-yl)-5-cyclopentylthiazole] | 69.4 nM
7 | CC(=O)OCc1c(-c2nnc(C(C)(C)C)s2)nn(-c2ccc(Cl)cc2Cl)c1-c1ccc(Br)cc1 [Example 520, (5-(4-bromophenyl)-3-(5-tert-butyl-1,3,4-thiadiazol-2-yl)-1-(2,4-dichlorophenyl)-1H-pyrazol-4-yl)methyl acetate] | 9.01 nM
8 | CCC(C)(C)c1nnc(-c2nn(-c3ccc(Cl)cc3Cl)c(-c3ccc(Cl)cc3)c2Cl)o1 [Example 334, 2-(4-chloro-5-(4-chlorophenyl)-1-(2,4-dichlorophenyl)-1H-pyrazol-3-yl)-5-tert-pentyl-1,3,4-oxadiazole] | 51 nM
9 | Cc1c(-c2ncc(C3CCCCC3)o2)nn(-c2ccc(Cl)cc2Cl)c1-c1ccc(Cl)cc1 [Example 638, 2-(5-(4-chlorophenyl)-1-(2,4-dichlorophenyl)-4-methyl-1H-pyrazol-3-yl)-5-cyclohexyloxazole] | 93.9 nM
10 | CCc1c(-c2nnc(C(C)(C)OCCCO)o2)nn(-c2ccc(Cl)cc2Cl)c1-c1ccc(Br)cc1 [Example 240, 3-(2-(5-(5-(4-bromophenyl)-1-(2,4-dichlorophenyl)-4-ethyl-1H-pyrazol-3-yl)-1,3,4-oxadiazol-2-yl)propan-2-yloxy)propan-1-ol] | 13.7 nM
11 | Cc1c(-c2nc(C3CCCC3)n(C)n2)nn(-c2ccc(Cl)cc2Cl)c1-c1ccc(Cl)cc1 [Example 623, 3-(5-(4-chlorophenyl)-1-(2,4-dichlorophenyl)-4-methyl-1H-pyrazol-3-yl)-5-cyclopentyl-1-methyl-1H-1,2,4-triazole] | 368 nM
12 | Cc1c(-c2nnc(C3(c4ccc(F)cc4)CC3)o2)nn(-c2ccc(Cl)cc2Cl)c1-c1ccc(Cl)cc1 [Example 274, 2-(5-(4-chlorophenyl)-1-(2,4-dichlorophenyl)-4-methyl-1H-pyrazol-3-yl)-5-(1-(4-fluorophenyl)cyclopropyl)-1,3,4-oxadiazole] | 12.3 nM
13 | CCC(C)(C)c1nnc(-c2nn(-c3ccc(Cl)cc3Cl)c(-c3ccc(Cl)cc3)c2Cl)s1 [Example 537, 2-(4-chloro-5-(4-chlorophenyl)-1-(2,4-dichlorophenyl)-1H-pyrazol-3-yl)-5-tert-pentyl-1,3,4-thiadiazole] | 127 nM
14 | CCc1c(-c2nnc(C3(c4ccccc4F)CC3)s2)nn(-c2ccc(Cl)cc2Cl)c1-c1ccc(Cl)cc1 [Example 501, 2-(5-(4-chlorophenyl)-1-(2,4-dichlorophenyl)-4-ethyl-1H-pyrazol-3-yl)-5-(1-(2-fluorophenyl)cyclopropyl)-1,3,4-thiadiazole] | 6.81 nM

Results, then the compound that gave them:

Row | IC50 | Compound
15 | 9.41 nM | Cc1c(-c2nnc(C(C)(C)OCc3ccccc3)o2)nn(-c2ccc(Cl)cc2Cl)c1-c1ccc(Cl)cc1 [Example 245, 2-(2-(benzyloxy)propan-2-yl)-5-(5-(4-chlorophenyl)-1-(2,4-dichlorophenyl)-4-methyl-1H-pyrazol-3-yl)-1,3,4-oxadiazole]
16 | 7.99 nM | CCc1c(-c2nnc(C(C)CC)s2)nn(-c2ccc(Cl)cc2Cl)c1-c1ccc(Cl)cc1 (stereo not drawn) [Example 398, 2-sec-butyl-5-(5-(4-chlorophenyl)-1-(2,4-dichlorophenyl)-4-ethyl-1H-pyrazol-3-yl)-1,3,4-thiadiazole]
17 | 9.18 nM | CCCC(C)c1nnc(-c2nn(-c3ccc(Cl)cc3Cl)c(-c3ccc(Br)cc3)c2CC)s1 (stereo not drawn) [Example 414, 2-(5-(4-bromophenyl)-1-(2,4-dichlorophenyl)-4-ethyl-1H-pyrazol-3-yl)-5-(pentan-2-yl)-1,3,4-thiadiazole]
18 | 14.1 nM | C=Cc1c(-c2nnc(C3(c4ccc(Cl)cc4)CC3)o2)nn(-c2ccc(Cl)cc2Cl)c1-c1ccc(Cl)cc1 [Example 229, 2-(5-(4-chlorophenyl)-1-(2,4-dichlorophenyl)-4-vinyl-1H-pyrazol-3-yl)-5-(1-(4-chlorophenyl)cyclopropyl)-1,3,4-oxadiazole]
19 | 41.2 nM | Cc1c(-c2nnc(Cc3ccccn3)s2)nn(-c2ccc(Cl)cc2Cl)c1-c1ccc(Cl)cc1 [Example 352, 2-(5-(4-chlorophenyl)-1-(2,4-dichlorophenyl)-4-methyl-1H-pyrazol-3-yl)-5-(pyridin-2-ylmethyl)-1,3,4-thiadiazole]
20 | 6.03 nM | CC(=O)c1c(-c2nnc(C(C)(C)C)s2)nn(-c2ccc(Cl)cc2Cl)c1-c1ccc(Br)cc1 [Example 533, 1-(5-(4-bromophenyl)-3-(5-tert-butyl-1,3,4-thiadiazol-2-yl)-1-(2,4-dichlorophenyl)-1H-pyrazol-4-yl)ethanone]
21 | 11 nM | CCc1c(-c2nnc(C3(C)CC3)o2)nn(-c2ccc(Cl)cc2Cl)c1-c1ccc(Cl)cc1 [Example 283, 2-(5-(4-chlorophenyl)-1-(2,4-dichlorophenyl)-4-ethyl-1H-pyrazol-3-yl)-5-(1-methylcyclopropyl)-1,3,4-oxadiazole]
22 | 453 nM | Cc1c(-c2nnc(C3(c4ccc(Cl)cc4)CC3)s2)nn(-c2ccc(Cl)cc2)c1-c1ccc(Cl)cc1 [Example 447, 2-(1,5-bis(4-chlorophenyl)-4-methyl-1H-pyrazol-3-yl)-5-(1-(4-chlorophenyl)cyclopropyl)-1,3,4-thiadiazole]
23 | 22.6 nM | CCc1c(-c2nnnn2C2CCCC2)nn(-c2ccc(Cl)cc2Cl)c1-c1ccc(Cl)cc1 [Example 610, 5-(5-(4-chlorophenyl)-1-(2,4-dichlorophenyl)-4-ethyl-1H-pyrazol-3-yl)-1-cyclopentyl-1H-tetrazole]
24 | 195 nM | Cc1c(-c2nnn(Cc3ccoc3)n2)nn(-c2ccc(Cl)cc2Cl)c1-c1ccc(Cl)cc1 [Example 596, 5-(5-(4-Chlorophenyl)-1-(2,4-dichlorophenyl)-4-methyl-1H-pyrazol-3-yl)-2-(furan-3-ylmethyl)-2H-tetrazole]
